Paper PMC3827244, “An Ultrasensitive High Throughput Screen for DNA Methyltransferase 1-Targeted Molecular Probes” (PLoS ONE, 2013)
Where two headings read alike, the source gives them in different places.

Assays:
[1] = target: T1, DNMT1 (amino acids 621–1616) (Homo sapiens, UniProt P26358); assay: Detergent test, endonuclease-coupled DNA methylation assay; type: biochemical; conditions: 5 µM compound
T1 construct: RFTS-lacking DNMT1, amino acids 621–1616; made in house
Excerpt: The effect of detergent on observed DNMT1 inhibition was examined using the endonuclease-coupled DNA methylation assay. […] A control containing GlaI in the absence of DNMT1 was subtracted from each assay condition. Corrected assay traces were fitted in Prism.

[2] = test system: calf thymus DNA; assay: DNA intercalation assay (ethidium bromide displacement); type: binding; conditions: 10 µM compound, 15 µg/ml ctDNA, 1.5 µM ethidium bromide; DMSO 2370 ± 190
Procedure: DNA intercalation was assessed by examining the ability of the compounds to displace ethidium bromide from calf thymus DNA (ctDNA; Sigma). Duplicate assays (100 µl) were conducted in black 96 well plates and contained 15 µg/ml ctDNA, 1.5 µM ethidium bromide and 10 µM compound in methylation assay buffer. DMSO was used as a negative control and daunorubicin (Sigma) was used as a positive control. Fluorescence was measured using excitation and emission wavelengths of 320 nm and 600 nm, respectively.

[3] = target: T1, DNMT1 (amino acids 621–1616); assay: Differential scanning fluorimetry (DSF) assay; type: binding; conditions: 100 µM compound; for Tm: 2 µM DNMT1, no DNA or SAM, DMSO 46.5 ± 0.1; for ∆Tm: shift versus DMSO control
Procedure: DSF [32] was used to assess the ability of the validated inhibitors to bind directly to DNMT1 in the absence of DNA and SAM and alter the observed melting temperature (Tm). Assays (25 µl) were conducted in triplicate in a Bio-Rad C1000 Thermal Cycler – CFX Real-Time System using the FRET channel and contained 50 mM HEPES pH 7.5, 150 mM NaCl, 2 µM DNMT1 (amino acids 621–1616), 5X Sypro Orange (Invitrogen Molecular Probes), 100 µM compound, and 1% DMSO. A DMSO control assay in the absence of compounds was also examined. Temperature was increased from 25 to 95°C by 0.5°C per minute. Fluorescence traces were exported and analyzed by fitting to the Boltzmann equation in Prism to determine the Tm.

[4] = target: T1, DNMT1 (amino acids 621–1616); assay: Validation of HTS hits, endonuclease-coupled DNA methylation assay; type: biochemical; design: Percent Activity: concentration or dose not given beside the values; conditions: for vo (initial velocity): first 12 minutes of GlaI corrected triplicate reaction traces; for Percent Activity: from initial velocity compared to DMSO control; for Normalized RFU: normalized to DMSO control (100) and GlaI control without DNMT1 (0); for RFU: relative fluorescence after 25-minute incubation at 37 °C, 10.9 µM test compound, three replicates
Procedure: DNMT activity was measured at 37°C using a fluorogenic DNA methylation assay. In short, a hemi-methylated hairpin oligonucleotide with a 5′ fluorophore and a 3′ quencher is methylated by addition of a DNMT and the methyl-donating co-factor, S-adenosyl methionine (SAM, HPLC-purified from Sigma). The fully methylated product is a substrate for the restriction endonuclease GlaI (Sibenzyme), which cleaves the oligonucleotide, releasing the fluorophore from the quencher and generating fluorescence. The oligonucleotide substrate (5′-FAM–[…]m[…]mCGmCATAGG-3′-Iowa Black, in which mC denotes 5-methyldeoxycytidylate residues), termed 8006, was synthesized by Integrated DNA Technologies, Coralville, IA. 96 well assays were performed in Co-Star black half-area plates and read in a Biotek Synergy Neo plate reader. 384 well assays were performed in Nunc flat-bottomed black plates and read in a PerkinElmer EnVision plate reader. FAM fluorescence was measured using excitation and emission wavelengths of 485 nm and 520 nm, respectively.
HTS against the Spectrum compound collection (Microsource, Gaylordsville, CT) was performed in eight 384 well plates. Using a Multiflo dispenser (Biotek), 75 µl of assay buffer (10.8 mM Tris-HCl pH 7.5, 1.08 mM MgCl2, 1.08 mM DTT, 108 mM potassium glutamate, 0.108 mg/ml BSA, 10.8 µM SAM, 21.6 nM oligonucleotide 8006, 5.4% glycerol) was dispensed into each well. 1 µl of each compound at 880 µM in DMSO (columns 3–22) or DMSO (columns 1, 2, 23 and 24) was added to assay plates using a Microlab Star liquid handling robot (Hamilton) and the plate was incubated at 37°C for 10 minutes. Following this warming step, 5 µl enzyme solution (either a DNMT1-containing solution of 20 mM Tris-HCl, pH 7.5, 300 mM NaCl, 2 mM DTT, 49 nM DNMT1 (amino acids 621–1616), 0.08 U/µl GlaI, 30% glycerol to columns 2–23 or a GlaI control solution of 20 mM Tris-HCl, pH 7.5, 300 mM NaCl, 2 mM DTT, 0.08 U/µl GlaI, 30% glycerol to columns 1 and 24) was added and the plate was again incubated at 37°C for 25 minutes. […] Each 384 well plate contained two columns of negative (n) and positive (p) controls for inhibitor activity. Columns 2 and 23 were the n controls with DMSO without test compound. Columns 1 and 24 were the p controls without DNMT1. Thus, 320 compounds were assayed per 384 well plate in columns 3–22.
Data across the screen were normalized to the p (0% DNMT1 activity) and n (100% DNMT1 activity) controls on each plate. […] Validation assays (81 µl total volume, identical buffer conditions to those used in the HTS screen) were performed in triplicate in 96 well plates with FAM fluorescence measured over the course of 1 hour. A control containing GlaI in the absence of DNMT1 was subtracted from each assay condition. Corrected assay traces were plotted and compared to DMSO-containing control traces in Prism (GraphPad Software, Inc).

[5] = test system: GlaI; assay: GlaI counterscreen; type: biochemical; conditions: 11 µM test compound; for Initial Velocity: 5 nM oligonucleotide 8007, 0.2 U GlaI; for Percent Activity: compared to DMSO
Procedure: GlaI inhibitors were identified and excluded using a fluorescence-based assay. Duplicate assays (80 µl) were conducted in 96 well plates. Assays contained 10 mM Tris-HCl pH 7.5, 100 mM potassium glutamate, 1 mM MgCl2, 1 mM DTT, 0.1 mg/mL BSA, 5% glycerol, 5 nM oligonucleotide 8007 (5′-FAM-CCTATGmCGm[…]mCGmCATAGG-3′-Iowa Black, where mC denotes 5-methyldeoxycytidylate residues, Integrated DNA Technologies, Coralville, IA), 0.2 U GlaI, 11 µM test compound and 1.2% DMSO. Reactions were initiated by the addition of GlaI. Cleavage of the oligonucleotide releases the 5′ FAM fluorophore from the 3′ Iowa Black quencher and generates fluorescence. A control reaction in the absence of GlaI was subtracted from each assay condition to account for background fluorescence of the internally quenched substrate. Corrected time courses were fitted in Prism.

[6] = absence of 0.01% Triton X-100, read-out: Percent activity, 0.01% Triton X-100 -
[7] = presence of 0.01% Triton X-100, read-out: Percent activity, 0.01% Triton X-100 +

T1 sequence (P26358 621-1616): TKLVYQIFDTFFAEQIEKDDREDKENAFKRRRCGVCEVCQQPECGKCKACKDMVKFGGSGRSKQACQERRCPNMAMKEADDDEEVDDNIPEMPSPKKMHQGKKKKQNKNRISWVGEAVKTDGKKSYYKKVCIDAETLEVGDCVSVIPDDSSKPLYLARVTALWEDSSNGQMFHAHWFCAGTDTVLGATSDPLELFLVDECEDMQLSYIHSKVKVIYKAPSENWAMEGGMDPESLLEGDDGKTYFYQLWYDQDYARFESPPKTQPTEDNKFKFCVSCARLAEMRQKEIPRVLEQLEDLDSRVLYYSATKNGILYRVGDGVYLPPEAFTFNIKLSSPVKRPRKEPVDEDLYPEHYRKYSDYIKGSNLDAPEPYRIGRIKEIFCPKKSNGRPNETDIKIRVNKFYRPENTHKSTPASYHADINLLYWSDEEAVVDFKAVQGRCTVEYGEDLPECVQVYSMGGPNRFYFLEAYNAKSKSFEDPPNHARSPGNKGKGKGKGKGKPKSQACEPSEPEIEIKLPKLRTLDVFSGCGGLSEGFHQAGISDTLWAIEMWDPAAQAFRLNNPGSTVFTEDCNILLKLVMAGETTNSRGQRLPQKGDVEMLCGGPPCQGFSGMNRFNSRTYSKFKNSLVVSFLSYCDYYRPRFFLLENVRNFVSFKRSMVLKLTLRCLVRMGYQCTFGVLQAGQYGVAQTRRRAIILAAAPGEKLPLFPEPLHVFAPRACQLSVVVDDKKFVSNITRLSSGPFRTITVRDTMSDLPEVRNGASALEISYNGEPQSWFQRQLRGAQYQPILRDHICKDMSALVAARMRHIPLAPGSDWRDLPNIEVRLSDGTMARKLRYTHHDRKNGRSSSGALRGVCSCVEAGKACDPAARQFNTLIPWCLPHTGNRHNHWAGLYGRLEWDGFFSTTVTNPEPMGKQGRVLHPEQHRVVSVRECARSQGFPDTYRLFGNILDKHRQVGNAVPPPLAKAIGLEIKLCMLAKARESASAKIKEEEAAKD

SMILES	remaining activity at 5 µM [1, 6]	remaining activity at 5 µM [1, 7]	RFU (ethidium bromide fluorescence) [2]	Tm [3]	∆Tm [3]	vo (initial velocity) [4]	Percent Activity [4]	Normalized RFU [4]	RFU [4]	Initial Velocity [5]	Percent Activity [5]
Oc1cc(Cl)ccc1Oc1ccc(Cl)cc1Cl [Cmpd 13, triclosan]	52%	48%	2406 ± 5 RFU	47.5 ± 0.1 ºC	+1.0 ºC	15 ± 2 RFU/min	27%	19	779 ± 42 RFU	28 ± 2 RFU/min	
O=C(O)c1cc(O)c2c(c1)[C@@H]([C@H]1c3cc(C(=O)O)cc(O)c3C(=O)c3c(O[C@H]4O[C@H](CO)[C@@H](O)[C@H](O)[C@H]4O)cccc31)c1cccc(O[C@H]3O[C@H](CO)[C@@H](O)[C@H](O)[C@H]3O)c1C2=O [Cmpd 22]	7%	9%	2415 ± 150 RFU	47.5 ± 0.1 ºC	+1.0 ºC		0%	7	621 ± 12 RFU	24 ± 1 RFU/min	86%
CC1/C=C/C=C/C=C/C=C/C=C/C=C/C=C/C(O[C@@H]2O[C@H](C)[C@H](O)[C@@H](O)[C@@H]2N)CC(O)C(C(=O)O)C(O)CC(=O)CC(O)CC(O)CC(O)CC(=O)CCCC(=O)CC(=O)OC1C(C)CC(C)C(O)CC(=O)c1ccc(N)cc1 (stereo partly drawn) [Cmpd 24]	0%	0%	2389 ± 64 RFU	47.5 ± 0.1 ºC	+1.0 ºC	5 ± 1 RFU/min	9%	11	677 ± 60 RFU	27 ± 1 RFU/min	
O=C1c2ccccc2C(=O)c2c1ccc(O)c2O [Cmpd 26, alizarin]	67%	63%	2364 ± 30 RFU	48.5 ± 0.1 ºC	+2.0 ºC	27 ± 2 RFU/min	49%	37	1024 ± 110 RFU	22 ± 1 RFU/min	79%
CSc1nc2cc(Cl)c(Oc3cccc(Cl)c3Cl)cc2[nH]1 [Cmpd 29, triclabendazole]	52%	46%	2500 ± 144 RFU	48.3 ± 0.1 ºC	+1.8 ºC	20 ± 2 RFU/min	36%	27	889 ± 20 RFU	22 ± 2 RFU/min	79%
O=c1c(O)c(-c2ccc(O)c(O)c2)oc2c(O)c(O)cc(O)c12 [Cmpd 33]	53%	47%	2524 ± 45 RFU	64.4 ± 0.2 ºC	+17.9 ºC	25 ± 3 RFU/min	45%	46	1145 ± 147 RFU	27 ± 2 RFU/min	
O=C(O)c1cc(O)c2c(c1)[C@@H]([C@@H]1c3cc(C(=O)O)cc(O)c3C(=O)c3c(O[C@H]4O[C@H](CO)[C@@H](O)[C@H](O)[C@H]4O)cccc31)c1cccc(O[C@H]3O[C@H](CO)[C@@H](O)[C@H](O)[C@H]3O)c1C2=O [Cmpd 36]	0%	0%	2309 ± 60 RFU	47.4 ± 0.1 ºC	+0.9 ºC		0%	5	591 ± 41 RFU	28 ± 1 RFU/min	
CC(=O)NCCc1ccc(O)c(-c2c(O)c(O)c3c(c2O)C(=O)c2c(cc(O)c(C(=O)O)c2C(=O)O)C3=O)c1 [Cmpd 40, Laccaic acid A]	56%	58%	2311 ± 148 RFU	48.5 ± 0.1 ºC	+2.0 ºC	6 ± 1 RFU/min	11%	5	602 ± 4 RFU	22 ± 3 RFU/min	79%
O=C(O)C(S)C(S)C(=O)O (stereo not drawn) [Cmpd 51]	10%	8%	2525 ± 200 RFU	49.0 ± 0.1 ºC	+2.5 ºC	5 ± 1 RFU/min	9%	6	612 ± 55 RFU	25 ± 1 RFU/min	89%
